Laboratory results as given in ChEMBL document CHEMBL1268925 (J Med Chem, 2010).

Target: T1, Dihydrofolate reductase (Bacillus anthracis, UniProt Q81R22)
T1 sequence (Q81R22 whole entry): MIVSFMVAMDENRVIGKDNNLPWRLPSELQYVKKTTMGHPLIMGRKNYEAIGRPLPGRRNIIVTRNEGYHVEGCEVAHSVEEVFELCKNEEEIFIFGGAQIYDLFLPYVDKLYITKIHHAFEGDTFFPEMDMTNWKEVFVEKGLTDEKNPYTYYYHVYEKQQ

COc1cc(C(C)(C)C#Cc2c(C)nc(N)nc2N)cc(OC)c1OC
IC50: 12.7 µM | Ki: 4.28 µM

CCc1nc(N)nc(N)c1C#CCc1cc(OC)ccc1-c1ccccc1
IC50: 7.7 µM | Ki: 2.59 µM
